Biological target: T1, BACE1 enzyme (Homo sapiens, UniProt P56817)
T1 construct: The HEK293-9B.A1 cell line, which overexpresses the BACE1 enzyme, was derived from HEK293 cells; endogenous in cells; washed 48,000 x g membrane pellet / cell homogenate
Assay: Radioligand displacement assay with a radiolabeled BACE inhibitor on HEK293-9B.A1 cell homogenate
Format: binding
Conditions: displacement of 1 nM tritiated radioligand, HEK293-9B.A1 homogenate, pH 5.0, 1.5 hr at 25° C.; read-out: Activity Rating (based on IC50 values)
Excerpt: There are a number of methods by which inhibitors of the BACE enzyme can be identified experimentally. The enzyme can be obtained from membrane samples from natural tissues or cultured cells or can be expressed recombinantly in a host cell by well known methods of molecular biology. The whole enzyme or a portion thereof can be expressed, for example, in bacterial, insect or mammalian cells to obtain a catalytically active enzyme species. The enzymatic activity and/or ligand binding capability of the enzyme can be assessed within these membrane samples, or the enzyme can be purified to varying extents. As an illustrative example, the nucleic acid sequence encoding the pro and catalytic domains of human BACE can be appended on the 5′ end with an untranslated and signal sequence from the gene for acetylcholinesterase, and on the 3′ end with a sequence encoding a poly-histidine tag. This cDNA can then be expressed in Drosophila melanogaster S2 cells in which the signal and pro sequences of the transcribed/translated protein are removed by cellular proteases and the catalytic domain, appended by a C-terminal poly-histidine tag, is secreted out into the cellular medium. The enzyme can then be purified from the culture medium by nickel affinity chromatography by methods well known to those trained in the art [Mallender, W. et al., (2001) “Characterization of recombinant, soluble beta-secretase from an insect cell expression system.” Mol. Pharmacol. 59: 619-626]. Similar strategies for expressing and purifying various forms of BACE in bacterial, mammalian and other cell types would be known to one skilled in the art. A preferred method for determining the potency of a test compound in binding to the BACE enzyme is by moitoring the displacement of a suitable radioligand.
Radioligand displacement assays with a radiolabeled BACE inhibitor (WO 2004 013098, compound 3, where the methoxy group is substituted for C(^3H)3) were carried out using standard methods (Keen, M. (1999) in Receptor Binding Techniques (Walker, J. M. ed) p. 106 Humana Press, Totowa, N.J.). The HEK293-9B.A1 cell line, which overexpresses the BACE1 enzyme, was derived from HEK293 cells (Simmons, N. L. (1990) A cultured human renal epithelioid cell line responsive to vasoactive intestinal peptide. Exp. Physiol. 75:309-19.) by RAGE™ (Harrington, J. J. et al. (2001) Creation of genome-wide protein expression libraries using random activation of gene expression. Nat. Biotechnol. 19:440-5; U.S. Pat. Nos. 6,410,266 and 6,361,972). T225 flask cultures of HEK293-9B.A1 were grown to 80% confluency in DMEM supplemented with 2 mM L-glutamine, 10 μg/ml penecillin, 10 μg/ml streptomycin, 3 μg/ml puromycin, 100 nM methotrexate, and 10% fetal bovine serum (Invitrogen, Carlsbad, Calif.), harvested, and resuspended at 2×10^8 cells per 10 ml of lysis buffer consisting of 50 mM HEPES pH 7.0 containing a protease inhibitor cocktail of AEBSF 104 μM, aprotinin 80 nM, leupeptin 2 μM, bestatin 4 μM, pepstatin A 1.5 μM, and E-64 1.4 μM (0.1% of protease inhibitor cocktail P8340, Sigma-Aldrich, St. Louis, Mo.) at 4° C. The resuspended cells were homogenized using a Polytron (Brinkman, Westbury, N.Y.) at setting 6 for 10 sec., then centrifuged at 48,000×g for 10 min. The resulting pellet was washed by repeating the resuspension, homogenization and centrifugation steps. […]

T1 sequence (P56817 46-501): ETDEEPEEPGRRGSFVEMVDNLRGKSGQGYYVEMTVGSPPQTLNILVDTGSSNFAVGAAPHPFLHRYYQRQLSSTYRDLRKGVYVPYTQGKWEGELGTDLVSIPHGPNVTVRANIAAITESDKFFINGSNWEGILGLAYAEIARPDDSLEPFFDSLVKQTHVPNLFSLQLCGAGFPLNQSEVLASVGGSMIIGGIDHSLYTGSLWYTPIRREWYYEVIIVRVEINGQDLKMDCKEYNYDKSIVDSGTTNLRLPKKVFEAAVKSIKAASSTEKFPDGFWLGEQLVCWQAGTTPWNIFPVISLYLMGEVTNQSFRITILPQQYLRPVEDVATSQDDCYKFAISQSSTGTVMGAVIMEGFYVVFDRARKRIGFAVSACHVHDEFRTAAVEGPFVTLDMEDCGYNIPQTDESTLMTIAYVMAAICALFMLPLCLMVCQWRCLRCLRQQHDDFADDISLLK

Row | Structure (SMILES) | IC50
1 | CCCO[C@H]1CN[C@@H]([C@@H](O)[C@H](Cc2cc(F)cc(F)c2)NC(=O)[C@H](CCc2ccccc2)N2CC[C@](NC(C)=O)([C@@H](C)CC)C2=O)C1 (stereo in doubt) [Example 2, (S)-2-((R)-3-acetamido-3-secbutyl-2-oxopyrrolidin-1-yl)-N-((1R,2S)-3-(3,5-difluorophenyl)-1-hydroxy-1-((2R,4R)-4-propoxypyrrolidin-2-yl)propan-2-yl)-4-phenylbutanamide] | < 100 nM
2 | CC[C@@H](C)[C@@]1(NC(C)=O)CCN([C@@H](CCc2ccccc2)C(=O)N[C@@H](Cc2cc(F)cc(F)c2)[C@H](O)[C@H]2C[C@H](O)CN2)C1=O [Example 15, (S)-2-((S)-3-acetamido-3-((R)-sec-butyl)-2-oxopyrrolidin-1-yl)-N-((1R,2S)-3-(3,5-difluorophenyl)-1-hydroxy-1-((2R,4S)-4-hydroxypyrrolidin-2-yl)propan-2-yl)-4-phenylbutanamide] | < 100 nM
3 | CCCOC1CN[C@@H]([C@@H](O)C(Cc2cc(F)cc(F)c2)NC(=O)[C@H](C)N2CC[C@H](CC(C)C)C2=O)C1 (some centres unmarked) [Example 7] | 100 to 1000 nM
4 | CCC(C)[C@@]1(NC(C)=O)CCN([C@@H](CCc2ccccc2)C(=O)N[C@@H](Cc2cc(F)cc(F)c2)[C@H](O)[C@H]2CCCCN2)C1=O (stereo in doubt) [Example 8, (S)-2-((S)-3-acetamido-3-((R)-sec-butyl)-2-oxopyrrolidin-1-yl)-N-((1R,2S)-3-(3,5-difluorophenyl)-1-hydroxy-1-((R)-piperidin-2-yl)propan-2-yl)-4-phenylbutanamide] | < 100 nM
5 | CCCS(=O)(=O)[C@H]1CN[C@@H]([C@@H](O)[C@H](Cc2ccccc2)NC(=O)[C@H](CCc2ccccc2)N2CC[C@](NC(C)=O)([C@H](C)CC)C2=O)C1 [Example 22, (S)-2-((S)-3-acetamido-3-((R)-sec-butyl)-2-oxopyrrolidin-1-yl)-N-((1R,2S)-1-hydroxy-3-phenyl-1-((2R,4R)-4-(propylsulfonyl)pyrrolidin-2-yl)propan-2-yl)-4-phenylbutanamide] | < 100 nM
